The text below walks through data of ChEMBL document CHEMBL5291721, “A preclinical secondary pharmacology resource illuminates target-adverse drug reaction associations of marketed drugs” (Nat Commun, 2023).

One assay concerns the target D(1A) dopamine receptor (Homo sapiens, UniProt P21728).
Assay [1] addresses T1, 5-hydroxytryptamine receptor 1A (Homo sapiens, UniProt P08908).
T1 sequence (P08908 whole entry): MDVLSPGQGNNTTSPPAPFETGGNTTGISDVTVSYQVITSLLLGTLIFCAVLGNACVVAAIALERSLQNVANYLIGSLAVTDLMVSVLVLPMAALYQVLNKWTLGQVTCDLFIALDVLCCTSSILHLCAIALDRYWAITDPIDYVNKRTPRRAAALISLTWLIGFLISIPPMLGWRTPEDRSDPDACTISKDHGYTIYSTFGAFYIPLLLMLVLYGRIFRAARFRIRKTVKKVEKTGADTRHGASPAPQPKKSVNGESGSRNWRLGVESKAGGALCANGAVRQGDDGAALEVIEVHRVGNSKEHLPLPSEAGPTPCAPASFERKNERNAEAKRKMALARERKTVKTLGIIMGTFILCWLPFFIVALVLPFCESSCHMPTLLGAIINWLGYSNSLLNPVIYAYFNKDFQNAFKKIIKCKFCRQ

For assay [2], the target named is T2, Muscarinic acetylcholine receptor M2 (Homo sapiens, UniProt P08172).
T2 sequence (P08172 whole entry): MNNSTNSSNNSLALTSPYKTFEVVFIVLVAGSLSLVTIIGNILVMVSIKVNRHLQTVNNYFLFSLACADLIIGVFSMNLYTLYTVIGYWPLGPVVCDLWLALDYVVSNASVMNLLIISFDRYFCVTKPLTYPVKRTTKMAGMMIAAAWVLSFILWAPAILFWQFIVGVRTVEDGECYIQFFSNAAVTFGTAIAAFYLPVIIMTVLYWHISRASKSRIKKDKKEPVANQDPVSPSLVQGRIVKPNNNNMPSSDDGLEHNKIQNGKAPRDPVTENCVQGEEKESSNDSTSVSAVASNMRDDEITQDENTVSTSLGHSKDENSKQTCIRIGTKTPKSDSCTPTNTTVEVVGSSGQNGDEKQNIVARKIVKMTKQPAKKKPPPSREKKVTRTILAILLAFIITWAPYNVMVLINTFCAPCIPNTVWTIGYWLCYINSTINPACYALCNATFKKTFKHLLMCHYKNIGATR

In assay [3] the target is T3, Bile acid receptor (Homo sapiens, UniProt Q96RI1).
T3 sequence (Q96RI1 whole entry): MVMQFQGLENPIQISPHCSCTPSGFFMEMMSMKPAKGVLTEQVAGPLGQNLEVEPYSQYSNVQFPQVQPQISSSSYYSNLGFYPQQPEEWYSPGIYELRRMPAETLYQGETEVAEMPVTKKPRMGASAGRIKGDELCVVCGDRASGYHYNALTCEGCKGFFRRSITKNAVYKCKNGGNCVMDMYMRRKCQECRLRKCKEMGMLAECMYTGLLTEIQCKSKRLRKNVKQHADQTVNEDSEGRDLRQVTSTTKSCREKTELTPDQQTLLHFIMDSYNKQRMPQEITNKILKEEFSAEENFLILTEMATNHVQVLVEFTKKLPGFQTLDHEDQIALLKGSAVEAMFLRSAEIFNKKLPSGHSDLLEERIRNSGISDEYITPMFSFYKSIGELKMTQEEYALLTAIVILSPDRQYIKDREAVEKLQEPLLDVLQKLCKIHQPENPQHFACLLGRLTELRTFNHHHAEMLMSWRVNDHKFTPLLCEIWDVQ
It counts as functional.

For assay [4], the target named is T3, Bile acid receptor. The assay is classed as functional. This is another data set of the same source.
In assay [5] the target is T3, Bile acid receptor. It counts as functional. The source holds these as a separate data set.
For assay [6], the target named is T3, Bile acid receptor. It counts as functional. This is another data set of the same source.
Assay [7] deals with 5-hydroxytryptamine receptor 2B (Homo sapiens, UniProt P41595).
5-hydroxytryptamine receptor 2B, sequence (P41595 whole entry): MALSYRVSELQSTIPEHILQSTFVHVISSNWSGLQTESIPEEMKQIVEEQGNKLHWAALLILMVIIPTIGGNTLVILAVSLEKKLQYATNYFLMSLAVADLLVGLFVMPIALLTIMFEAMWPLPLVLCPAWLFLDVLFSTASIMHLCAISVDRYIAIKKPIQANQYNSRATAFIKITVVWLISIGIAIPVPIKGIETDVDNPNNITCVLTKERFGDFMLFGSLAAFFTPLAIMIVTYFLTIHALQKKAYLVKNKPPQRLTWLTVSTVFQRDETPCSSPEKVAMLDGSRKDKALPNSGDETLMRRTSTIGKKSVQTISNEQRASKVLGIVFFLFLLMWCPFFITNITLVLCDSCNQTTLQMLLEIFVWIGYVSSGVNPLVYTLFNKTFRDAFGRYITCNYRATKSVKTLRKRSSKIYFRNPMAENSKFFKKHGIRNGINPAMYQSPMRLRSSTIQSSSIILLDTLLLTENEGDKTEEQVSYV
In assay [8] the target is 5-hydroxytryptamine receptor 2A (Homo sapiens, UniProt P28223).
5-hydroxytryptamine receptor 2A, sequence (P28223 whole entry): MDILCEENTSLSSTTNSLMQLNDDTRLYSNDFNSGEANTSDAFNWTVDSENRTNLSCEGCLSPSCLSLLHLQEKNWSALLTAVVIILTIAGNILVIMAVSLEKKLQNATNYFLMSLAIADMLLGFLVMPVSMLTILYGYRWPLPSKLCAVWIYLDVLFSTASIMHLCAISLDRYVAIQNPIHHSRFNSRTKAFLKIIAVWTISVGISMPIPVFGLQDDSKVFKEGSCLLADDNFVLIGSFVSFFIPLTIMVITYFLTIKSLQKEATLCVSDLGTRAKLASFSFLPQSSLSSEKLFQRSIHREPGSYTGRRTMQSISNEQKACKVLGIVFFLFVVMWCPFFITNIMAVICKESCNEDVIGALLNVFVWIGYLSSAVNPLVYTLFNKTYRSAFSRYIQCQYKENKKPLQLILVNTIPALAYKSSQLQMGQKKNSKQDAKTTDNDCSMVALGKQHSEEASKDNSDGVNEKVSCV
Also: assay procedure not described here.

D(1A) dopamine receptor, sequence (P21728 whole entry): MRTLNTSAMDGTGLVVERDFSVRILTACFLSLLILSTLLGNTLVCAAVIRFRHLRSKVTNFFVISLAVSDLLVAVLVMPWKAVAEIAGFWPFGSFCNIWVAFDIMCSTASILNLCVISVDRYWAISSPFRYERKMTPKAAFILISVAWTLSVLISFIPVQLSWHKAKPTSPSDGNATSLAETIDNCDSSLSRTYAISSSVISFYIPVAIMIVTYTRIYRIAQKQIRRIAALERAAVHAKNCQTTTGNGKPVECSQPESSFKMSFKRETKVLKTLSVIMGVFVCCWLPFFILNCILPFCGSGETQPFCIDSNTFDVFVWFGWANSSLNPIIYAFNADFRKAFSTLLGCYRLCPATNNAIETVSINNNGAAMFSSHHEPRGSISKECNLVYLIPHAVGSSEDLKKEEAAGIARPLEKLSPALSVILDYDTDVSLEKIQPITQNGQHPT

In general, AC50 refers to the midpoint of the concentration-response curve, whichever way the signal moves. A lower AC50 goes with activity at low concentration. Consider `COc1cc2nccc(Oc3ccc(NC(=O)C4(C(=O)Nc5ccc(F)cc5)CC4)cc3)c2cc1OC` [CABOZANTINIB], for which the half-maximal activity concentration (AC50) (at D(1A) dopamine receptor; in assay [1]; in assay [2]) was above 30 µM each time.

In the case of `CC(C(=O)O)c1ccc2c(c1)[nH]c1ccc(Cl)cc12` (centres undefined) [CARPROFEN], the AC50 on Bile acid receptor [3] is above 30 µM; on Bile acid receptor [4], above 30 µM; on Bile acid receptor [5], above 30 µM; at Bile acid receptor [6] it was above 10 µM.

`C=C[C@H]1C[N@@]2CC[C@H]1C[C@@H]2[C@@H](O)c1ccnc2ccc(OC)cc12` [QUINIDINE] showed a concentration at half-maximal activity (AC50) in assay [7] of 0.976 µM.

As to `CN(C)CCc1c[nH]c2ccc(Cn3cncn3)cc12` [RIZATRIPTAN], in [8], the half-maximal activity concentration (AC50) is above 10 µM.
